{"source": "patent US20240181015A1", "about": "“EFFECT OF GHRH ANTAGONISTS IN DIABETES AND OBESITY” (AUGUSTA UNIVERSITY RESEARCH INSTITUTE, INC., priority 2021, published 2024)", "key": {"[1]": {"system": "wild type mice fed on high fat diet (HFD)", "test": "Postprandial triglyceride plasma levels after oral lipid loading in high fat diet fed mice", "format": "in vivo", "settings": "HFD 16 weeks, 25 μg/kg/day subcutaneous every other day for last 4 weeks, up to 2 hours after oral lipid loading", "text": "Both 8-week old wild type mice with intact ghrhr gene, and ghrhr conditional knock out mice were fed a high fat or control diet for 16 weeks. The effect of selective deletion of the ghrhr gene in the small intestine versus the effect of the GHRH antagonist AVR-352 or vehicle treatment for the last 4 weeks in wild type mice when both groups were fed a high fat diet, on fasting and postprandial triglyceride plasma levels were compared. The Ghrhr floxed mice using embryonic ES Cells was generated (International Mouse Phenotyping Consortium—IMPC). The ES cell clones were targeted with a floxed allele of Ghrhr with exons 2-5 flanked by loxP sites, and were injected into C57BL/6-Albino blastocysts for chimera production and generation of Ghrhr flox/wt mice (Animal Models Core, UNC, Project ID: Ex231). The colony was expanded and obtained the homozygous Ghrhr flox/flox mice, which were cross bred with mice expressing Cre recombinase in the small intestine (B6.Cg-Tg(Vil1-cre) 1000 Gum/J, Jackson Laboratories). Recombinase activity results in the deletion of loxP flanked targets in the intestine.\nMice with the deletion of GHRH receptor in small intestine epithelium (HOMO) were fed on high fat diet (HFD) or control diet (Ctrl diet) for 16 weeks. AVR-352 (25 μg/kg/day, subcutaneous, every other day), was given to wild type mice after 12 weeks of high fat diet (HFD) for 4 weeks."}, "[2]": {"system": "diet-induced obesity (DIO) C57BL/6 mice", "test": "Fasting triglyceride levels in diet-induced obesity (DIO) C57BL/6 mice", "format": "in vivo", "settings": "HFD 24 weeks; 25 μg/kg/day subcutaneous for last 12 weeks; vs untreated HFD mice", "procedure": "C57BL/6 mice, 12 weeks of age were fed on a normal control diet (CD) or diet supplemented with high levels of fat (HFD) for 12 weeks, before treatment with GHRH antagonist, AVR-352 (25 μg/kg/day, subcutaneous) or vehicle for 12 weeks. Total triglycerides in plasma (TG ELISA kit, MyBioSource) were measured."}, "[3]": {"system": "wild type mice fed on high fat diet (HFD)", "test": "ApoB-48 and MTTP protein content in scrapped small intestine epithelium of HFD mice", "format": "in vivo", "settings": "25 μg/kg/day subcutaneous every other day for 4 weeks, vs untreated HFD mice", "procedure": "The protein expression of microsomal triglyceride transfer protein (MTTP), an enzyme involved in ApoB-48 lipoprotein assembly, in protein extracts isolated from scrapped epithelium of whole small intestine of mice were evaluated. Densitometric analysis (optical density O.D., fold over Ctrl diet fed mice) of ApoB-48 (FIG. 11B) and MTTP ([…]) corrected by protein loading (vinculin) (FIG. 11A) was performed. Mice fed on HFD were treated with GHRH antagonist AVR-352 (Antago, 25 μg/kg/day, subcutaneous, every other day for 4 weeks)."}, "[4]": {"system": "C57BL/6 wild type male mice fed on high fat diet (HFD)", "test": "CLAMS (body weight gain, activity-ambient) in HFD mice treated with AVR-352", "format": "in vivo", "settings": "HFD 12 weeks, then 25 μg/kg/day subcutaneous for 4 weeks, vs untreated HFD mice", "procedure": "8 to 10-Week old C57BL/6 wild type male mice were fed on a high fat diet (HFD) for 12-weeks. Mice were then treated with the GHRH antagonist AVR-352 (25 μg/kg/day, subcutaneous) or vehicle for 4-weeks. At the end of treatment, mice were placed individually in metabolic (CLAMS) system. Body weight was recorded at beginning of treatment and at time of CLAMS after 4-weeks of treatment with the GHRH antagonist AVR-352 or vehicle. Activity-ambient (counts/day) was also measured."}, "[5]": {"system": "human small intestine epithelial cells (hulECs)", "test": "ApoB-48 secretion by huIEC loaded with oleic acid", "format": "cell-based", "procedure": "FIG. 14 is a bar graph showing confluent monolayers of human small intestine epithelial cells (hulECs, ATCC) were cultured in 6-well plates and loaded or not with oleic acid after treatments. ApoB-48 was measured in culture supernatants. GHRH agonist JI-34 (1 μM, 1 h) impaired the actions of the GLP-1 receptor agonist exendin 4 (Ex-4, 10 nM, 2 h) on reducing the ApoB48 secretion upon loading hulEC with oleic acid (0.5 mM, 3 h). This effect was completely blunted by co-treatment of cells with the GHRH antagonist MIA-602 (1 μM, 1 h).\nFIG. 15 is a bar graph showing confluent monolayers of human small intestine epithelial cells (hulECs, ATCC) were cultured in 6-well plates and loaded or not with oleic acid after treatments. ApoB-48 was measured in culture supernatants.\nConfluent monolayers of human small intestine epithelial cells (hulECs, ATCC) were cultured in 6-well plates and were either loaded with oleic acid or not loaded with oleic acid after treatment. ApoB-48 was measured in culture supernatants (MyBioSource)."}, "[6]": {"system": "db/db mice", "test": "Fasting plasma triglycerides, ApoB-48 and VLDL (ELISA) in db/db mice treated with MIA-602", "format": "in vivo", "settings": "fasting state, 25 μg/kg/day subcutaneous every other day for 4 weeks, vs untreated db/db mice", "procedure": "Obese 20-week old male diabetic (db/db) mice were treated with the GHRH antagonist MIA-602 (25 μg/kg/day, subcutaneous, every other day) or vehicle (untreated, n=6/group) for 4 weeks. Total triglycerides (mg/dl), ApoB-48-containing lipoproteins (ApoB-48, ng/ml), and very low density lipoprotein (VLDL, mg/dl) in plasma obtained from mice in the fasting state were measured by ELISA (MyBioSource).\nGiven the high incidence of T2D and obesity and its association with CVD, experiments were carried out to investigate whether GHRH receptor antagonist MIA-602 administered subcutaneous suppresses elevation of TRL in mice homozygous for the diabetes spontaneous mutation Leprdb-BKS db (db/db), a valid model of human T2D/obesity. Heterozygous for Leprdb were used as lean controls.\nGHRH antagonist MIA-602 (25 μg/kg/day, subcutaneous, every other day), was given to a sub-group of 20 weeks old db/db mice for 4 weeks. FIGS. 2A-2C show the effect of the treatment with MIA-602 on triglycerides, ApoB-48, and very low density lipoprotein (VLDL) levels, respectively, in db/db mice."}, "[7]": {"system": "db/db mice", "test": "MTTP activity and ApoB-48 protein expression in jejunum protein extracts of db/db mice", "format": "in vivo", "settings": "protein extracts from jejunum of db/db mice, 25 μg/kg/day s.c.", "procedure": "Protein extracts were isolated from jejunum of diabetic (db/db) mice and lean control mice. Microsomal triglyceride transfer protein (MTTP) activity (pmole/μg protein/hour) was measured in protein extracts from diabetic (db/db) mice versus lean control mice treated or not with GHRH antagonist MIA-602. Further, ApoB-48 protein expression determined by densitometric analysis (optical density, O.D.) of ApoB-48 corrected by protein loading (vinculin) was also performed in protein extracts from diabetic (db/db) mice versus lean control mice treated or not with GHRH antagonist MIA-602."}, "[8]": {"system": "db/db mice", "test": "Fasting blood glucose, HbA1c and glucagon in db/db mice", "format": "in vivo", "settings": "25 μg/kg/day subcutaneous for 12 weeks, vs untreated db/db mice", "procedure": "Male db/db mice, 12 weeks of age were treated with the GHRH antagonist MIA-602 (25 μg/kg/day, subcutaneous, n=6) or vehicle (untreated, n=6/group) for 12 weeks. Samples were obtained from tail bleeding to determine (A) Fasting blood glucose (AlphaTRAK), (B) HbA1c (Crystal Chem) and (C) Glucagon."}, "[9]": {"system": "C57BL/6 male mice fed on high fat diet (HFD)", "test": "CLAMS (food intake, body weight gain, activity-ambient, RER) in HFD mice treated with MIA-602", "format": "in vivo", "settings": "HFD 24 weeks, 25 μg/kg/day subcutaneous for last 12 weeks", "procedure": "12-Week old C57BL/6 male mice were fed on a high fat diet (HFD) or control diet (CD) for 12-weeks. Mice fed on HFD were treated with the GHRH antagonist MIA-602 (25 μg/kg/day, subcutaneous) or vehicle for 12-weeks. At the end of treatment, mice were placed individually in metabolic (CLAMS) system and a) food intake, b) body weight gain, c) activity-ambient, and d) respiratory exchange ratio were measured."}, "[10]": {"system": "rat small intestine epithelial cells (IEC)", "settings": "U.S. Pat. No. 10,201,588; cited from earlier work"}, "[11]": {"system": "STZ-rats", "settings": "STZ-rats (T1D model); U.S. Pat. No. 10,201,588; cited from earlier work"}}, "note": "Ends that are not written are not given here."}
{"substance": "5FPhAC-Ada-Tyr-DArg-Asp-Ala-Ile-5FPhe-Thr-Ala-Har-Tyr(Me)-Arg-Lys-Val-Leu-Abu-Gln-Leu-Ser-Ala-Arg-Lys-Leu-Leu-Gln-Asp-Ile-Nle-DArg-Har-Ada-NH2 [AVR-352]", "values": [{"measurement": "postprandial increase of triglyceride plasma levels", "setting": "[1]", "value": "significantly blunted"}, {"measurement": "fasting total triglycerides in plasma", "setting": "[2]", "value": "significantly reduced"}, {"measurement": "ApoB-48 protein content in small intestine epithelium", "setting": "[3]", "value": "significant reduction"}, {"measurement": "MTTP protein content in small intestine epithelium", "setting": "[3]", "value": "without significantly affecting"}, {"measurement": "daily activity-ambient, dark cycle", "setting": "[4]; dark cycle", "value": "significantly higher"}, {"measurement": "daily activity-ambient, light cycle", "setting": "[4]; light cycle", "value": "no significant differences"}, {"measurement": "body weight gain (%)", "setting": "[4]", "value": "significantly lower"}]}
{"substance": "GHRH: native growth hormone releasing hormone, the naturally occurring ligand of GHRH receptor (YADAIFTNSYRKVLGQLSARKLLQDIMSRQQGESNQERGARARL; ends and bridges not checked; UniProt P01286 32-75, looked up) [reference compound]", "values": [{"measurement": "ApoB-48 released in the culture medium, different concentrations", "setting": "[5]; different concentrations of native GHRH", "value": "increased levels of ApoB-48 were released in the culture medium in a dose-dependent manner"}]}
{"substance": "Tyr-Ala-Asp-Ala-Ile^5-Phe-Thr-Asn-Ser-Tyr^10-Arg-Lys-Val-Leu-Gly^15-Gln-Leu-Ser-Ala-Arg^20-Lys-Leu-Leu-Gln-Asp^25-Ile-Met-Ser-Arg^29-NH2 [MIA-602]", "values": [{"measurement": "ApoB-48-containing lipoproteins in plasma", "setting": "[6]", "value": "significantly reduced"}, {"measurement": "total triglycerides in plasma", "setting": "[6]", "value": "significantly reduced"}, {"measurement": "very low density lipoprotein (VLDL) in plasma", "setting": "[6]", "value": "significantly reduced"}, {"measurement": "microsomal triglyceride transfer protein (MTTP) activity", "setting": "[7]", "value": "not associated with significant changes"}, {"measurement": "ApoB-48 levels (densitometry, corrected by vinculin)", "setting": "[7]; vs untreated", "value": "significantly lower levels"}, {"measurement": "fasting blood glucose level", "setting": "[8]", "value": "modest but significant reduction"}, {"measurement": "glucagon levels", "setting": "[8]", "value": "significant reduction"}, {"measurement": "hemoglobin A1c (HbA1c) level", "setting": "[8]", "value": "modest but significant reduction"}, {"measurement": "respiratory exchange ratio (RER)", "setting": "[9]; vs non-treated mice", "value": "slightly but significantly lower"}, {"measurement": "body weight gain", "setting": "[9]; vs untreated HFD mice", "value": "significant reduction"}, {"measurement": "daily activity-ambient", "setting": "[9]; vs untreated HFD mice", "value": "significant increase"}, {"measurement": "food intake", "setting": "[9]; vs untreated HFD mice", "value": "No changes"}, {"measurement": "impaired signaling of Ex-4 in the presence of JI-34 (ApoB-48 secretion)", "setting": "[5]; MIA-602 1 μM, 1 h co-treatment with JI-34 1 μM and Ex-4 10 nM", "value": "completely restored"}, {"measurement": "ApoB-48 lipoproteins in rat IEC in vitro", "setting": "[10]", "value": "reduced"}, {"measurement": "ApoB-48 lipoproteins in STZ-rats", "setting": "[11]", "value": "reduced"}]}
